Experimental data reported in patent US9113629B2, “4-amino-6-(4-substituted-phenyl)-picolinates and 6-amino-2-(4-substituted-phenyl)-pyrimidine-4-carboxylates and their use as herbicides” (DOW AGROSCIENCES LLC, priority 2013, dated 2015).
Like-named read-outs stand apart in the source and are kept apart here.

What was measured:
[1] = system: Key Grass and Sedge Weeds as well as Grass Crops; assay: Post-emergent Test II herbicidal activity (Table 6); type: in vivo; settings: post-emergence, 336 h; for pest or weed control at 70 g/ha: application rate 70 g ai/ha; for pest or weed control at 140 g/ha: application rate 140 g ai/ha
Outline: (§1)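 Spray rates: a highest rate plus ½×, ¼×, ⅛×, 1/16×, all delivered at 187 L/ha to plants at the first–second true leaf stage. Readout is a visual percent injury score at 14 d, where 100 means complete kill.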

[2] = system: Key Broadleaf Weed and Crop Species; assay: Post-emergent Test II herbicidal activity (Table 5); type: in vivo; settings: post-emergence, 336 h, post-emergent, 14 days after application; for pest or weed control at 70 g/ha: 70 g ai/ha; for pest or weed control at 140 g/ha: 140 g ai/ha
Outline: as §1

[3] = Triticum aestivum, TRZSS (wheat), read-out: Visual Growth Reduction (%) 14 Days After Application, TRZSS
[4] = CYPES: yellow nutsedge (Cyperus esculentus), read-out: Visual Growth Reduction (%) 14 Days After Application, CYPES
[5] = DIGSA: crabgrass (Digitaria sanguinalis), read-out: Visual Growth Reduction (%) 14 Days After Application, DIGSA
[6] = ECHCG: barnyardgrass (Echinochloa crus-galli), read-out: Visual Growth Reduction (%) 14 Days After Application, ECHCG
[7] = ORYSA: rice (Oryza sativa), read-out: Visual Growth Reduction (%) 14 Days After Application, ORYSA
[8] = SETFA: giant foxtail (Setaria faberi), read-out: Visual Growth Reduction (%) 14 Days After Application, SETFA
[9] = SORVU: grain sorghum (Sorghum vulgare), read-out: Visual Growth Reduction (%) 14 Days After Application, SORVU
[10] = ZEAMX: maize, corn (Zea mays), read-out: Visual Growth Reduction (%) 14 Days After Application, ZEAMX
[11] = ABUTH: velvetleaf (Abutilon theophrasti), read-out: Visual Growth Reduction (%) 14 Days After Application ABUTH
[12] = AMARE: redroot pigweed (Amaranthus retroflexus), read-out: Visual Growth Reduction (%) 14 Days After Application AMARE
[13] = BRSNN: oilseed-rape, canola (Brassica napus), read-out: Visual Growth Reduction (%) 14 Days After Application BRSNN
[14] = CHEAL: lambsquarters (Chenopodium album), read-out: Visual Growth Reduction (%) 14 Days After Application CHEAL
[15] = EPHHL: wild poinsettia (Euphorbia heterophylla), read-out: Visual Growth Reduction (%) 14 Days After Application EPHHL
[16] = HELAN: sunflower (Helianthus annuus), read-out: Visual Growth Reduction (%) 14 Days After Application HELAN
[17] = VIOTR: wild pansy (Viola tricolor), read-out: Visual Growth Reduction (%) 14 Days After Application VIOTR

| SMILES | pest or weed control at 70 g/ha [1, 3] | pest or weed control at 140 g/ha [1, 3] | pest or weed control at 70 g/ha [1, 4] | pest or weed control at 70 g/ha [1, 5] | pest or weed control at 140 g/ha [1, 5] | pest or weed control at 70 g/ha [1, 6] | pest or weed control at 140 g/ha [1, 6] | pest or weed control at 70 g/ha [1, 7] | pest or weed control at 140 g/ha [1, 7] | pest or weed control at 70 g/ha [1, 8] | pest or weed control at 140 g/ha [1, 8] | pest or weed control at 70 g/ha [1, 9] | pest or weed control at 140 g/ha [1, 9] | pest or weed control at 70 g/ha [1, 10] | pest or weed control at 140 g/ha [1, 10] | pest or weed control at 70 g/ha [2, 11] | pest or weed control at 140 g/ha [2, 11] | pest or weed control at 70 g/ha [2, 12] | pest or weed control at 140 g/ha [2, 12] | pest or weed control at 70 g/ha [2, 13] | further results |
| --- | --- | --- | --- | --- | --- | --- | --- | --- | --- | --- | --- | --- | --- | --- | --- | --- | --- | --- | --- | --- | --- |
| COC(=O)c1nc(-c2ccc(I)cc2F)cc(N)c1Cl [Compound 159] | 60 to 74% | 60 to 74% | 95 to 100% | 85 to 94% | 85 to 94% | 85 to 94% | 95 to 100% | 0 to 29% | 0 to 29% | 75 to 84% | 95 to 100% | 95 to 100% | 95 to 100% | 60 to 74% | 75 to 84% | 95 to 100% | 95 to 100% | 95 to 100% | 95 to 100% | 85 to 94% | pest or weed control at 140 g/ha [1, 4]: 95 to 100%; pest or weed control at 140 g/ha [2, 13]: 85 to 94%; pest or weed control at 70 g/ha [2, 14]: 95 to 100%; pest or weed control at 140 g/ha [2, 14]: 95 to 100%; pest or weed control at 70 g/ha [2, 15]: 95 to 100%; pest or weed control at 140 g/ha [2, 15]: 95 to 100%; pest or weed control at 70 g/ha [2, 16]: 75 to 84%; pest or weed control at 140 g/ha [2, 16]: 95 to 100%; pest or weed control at 70 g/ha [2, 17]: 0 to 29%; pest or weed control at 140 g/ha [2, 17]: 45 to 59% |
| Cc1c(-c2ccc(C(F)(F)F)c(F)c2)nc(C(=O)O)c(Cl)c1N [Compound 161, 4-amino-3-chloro-6-(3-fluoro-4-(trifluoromethyl)phenyl)-5-methylpicolinic acid] | 60 to 74% | 60 to 74% | 95 to 100% | 30 to 44% | 45 to 59% | 45 to 59% | 60 to 74% | 0 to 29% | 0 to 29% | 85 to 94% | 85 to 94% | 0 to 29% | 0 to 29% | 60 to 74% | 60 to 74% | 75 to 84% | 85 to 94% | 45 to 59% | 95 to 100% | 95 to 100% | pest or weed control at 140 g/ha [2, 13]: 95 to 100%; pest or weed control at 70 g/ha [2, 14]: 95 to 100%; pest or weed control at 140 g/ha [2, 14]: 95 to 100%; pest or weed control at 70 g/ha [2, 15]: 0 to 29%; pest or weed control at 140 g/ha [2, 15]: 0 to 29%; pest or weed control at 70 g/ha [2, 16]: 95 to 100%; pest or weed control at 140 g/ha [2, 16]: 95 to 100%; pest or weed control at 70 g/ha [2, 17]: 0 to 29%; pest or weed control at 140 g/ha [2, 17]: 0 to 29% |
| COC(=O)c1nc(-c2ccc(Br)c(F)c2)nc(N)c1OC [Compound 171, Methyl 6-amino-2-(4-bromo-3-fluorophenyl)-5-methoxypyrimidine-4-carboxylate] | 30 to 44% | 30 to 44% | 45 to 59% | 0 to 29% | 60 to 74% | 30 to 44% | 60 to 74% | 0 to 29% | 0 to 29% | 0 to 29% | 0 to 29% | 0 to 29% | 45 to 59% | 60 to 74% | 75 to 84% | 75 to 84% | 85 to 94% | 85 to 94% | 95 to 100% | 85 to 94% | pest or weed control at 140 g/ha [1, 4]: 45 to 59%; pest or weed control at 140 g/ha [2, 13]: 85 to 94%; pest or weed control at 70 g/ha [2, 14]: 85 to 94%; pest or weed control at 140 g/ha [2, 14]: 85 to 94%; pest or weed control at 70 g/ha [2, 15]: 95 to 100%; pest or weed control at 140 g/ha [2, 15]: 95 to 100%; pest or weed control at 70 g/ha [2, 16]: 85 to 94%; pest or weed control at 140 g/ha [2, 16]: 85 to 94%; pest or weed control at 70 g/ha [2, 17]: 95 to 100%; pest or weed control at 140 g/ha [2, 17]: 95 to 100% |
| Nc1c(Cl)c(C(=O)O)nc(-c2ccc(I)cc2)c1Cl [Compound 173] | 60 to 74% | 60 to 74% | 95 to 100% | 60 to 74% | 75 to 84% | 75 to 84% | 75 to 84% | 0 to 29% | 0 to 29% | 75 to 84% | 85 to 94% | 75 to 84% | 85 to 94% | 60 to 74% | 75 to 84% | 60 to 74% | 85 to 94% | 85 to 94% | 95 to 100% | 85 to 94% | pest or weed control at 140 g/ha [1, 4]: 95 to 100%; pest or weed control at 140 g/ha [2, 13]: 85 to 94%; pest or weed control at 70 g/ha [2, 14]: 85 to 94%; pest or weed control at 140 g/ha [2, 14]: 85 to 94%; pest or weed control at 70 g/ha [2, 15]: 0 to 29%; pest or weed control at 140 g/ha [2, 15]: 45 to 59%; pest or weed control at 70 g/ha [2, 16]: 95 to 100%; pest or weed control at 140 g/ha [2, 16]: 95 to 100%; pest or weed control at 70 g/ha [2, 17]: 0 to 29%; pest or weed control at 140 g/ha [2, 17]: 0 to 29% |
